In assay [1] the target is T1, Ras farnesyl transferase (Rattus norvegicus, UniProt Q02293+Q04631).
T1 construct: endogenous in cells; host or cells: Rat2 fibroblasts transformed with C-Harvey-Ras, or with H-Ras carrying the K-Ras C-terminal polybasic lysine domain
The assay is described as follows: in vivo (cellular) Ras farnesyl transferase inhibitory activity, Rat2 cells transformed with H-Ras fused with polybasic lysine domain of K-Ras. Format: cell-based. The following applies: Rat2 cell line transformed with H-Ras substituted with polybasic lysine domain at C-terminus of K-Ras; concentration inhibiting 50% of farnesyl binding; read-out: K-Ras CIC50. A digest of the protocol:
(§1)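 Transformed Rat2 cells treated with compound in 1% DMSO, labelled with [35S]methionine from 4 h onward for a further 20 h. Ras immunoprecipitated with Y13-259 and resolved by SDS-PAGE and autoradiography. CIC50 is the concentration inhibiting 50% of Ras farnesylation, from farnesylated versus unfarnesylated band intensities.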

Assay [2] deals with T2, Ras farnesyl transferase (Homo sapiens, UniProt P49354+P49356).
T2 construct: made in house
The assay is described as follows: in vitro inhibitory activity for Ras farnesyl transferase, K-Ras substrate. The following applies: recombinant Ras farnesyl transferase, K-Ras substrate; read-out: K-Ras IC50. Format: biochemical.

In assay [3] the target is T1, Ras farnesyl transferase. Briefly: in vivo (cellular) Ras farnesyl transferase inhibitory activity, Rat2 cells expressing C-Harvey-Ras. The following applies: Rat2 cell line expressing C-Harvey-Ras; concentration inhibiting 50% of farnesyl binding of Ras protein; read-out: H-Ras CIC50. The class given is cell-based. A digest of the protocol:
as §1

The target in assay [4] is T2, Ras farnesyl transferase. The assay is described as follows: in vitro inhibitory activity for Ras farnesyl transferase, H-Ras substrate. The class given is biochemical. The following applies: recombinant Ras farnesyl transferase, H-Ras substrate, tritium-farnesylpyrophosphate, 30 minutes at 37° C.; read-out: H-Ras IC50.

Each structure is given as a SMILES string.

For the compound `CN1CCN(C(=O)c2cn(Cc3cncn3CC3CCN(C(=O)CCc4ccccc4)CC3)cc2-c2cccc3ccccc23)CC1` [Compound 43, 3-(4-Methylpiperazin-1-yl)carbonyl-4-(naphthalen-1-yl)-1-{1-[1-(2-phenylethylcarbonyl)-piperidin-4-yl]methyl-1H-imidazol-5-yl}methyl-1H-pyrrole], the IC50 on Ras farnesyl transferase [1] is 10000 to 50000 nM; on Ras farnesyl transferase [2], 10 nM; at Ras farnesyl transferase [3], 50 nM; on Ras farnesyl transferase [4], 2 nM.

With `CN1CCN(C(=O)c2cn(Cc3cncn3CC3CCN(C(=O)COc4ccccc4)CC3)cc2-c2cccc3ccccc23)CC1` [Compound 44, 3-(4-Methylpiperazin-1-yl)carbonyl-4-(naphthalen-1-yl)-1-[1-(1-phenoxyacetylpiperidin-4-yl)methyl-1H-imidazol-5-yl]methyl-1H-pyrrole], the IC50 is 10000 to 50000 nM at Ras farnesyl transferase [1], 11 nM on Ras farnesyl transferase [2], 50 nM on Ras farnesyl transferase [3] and 2 nM at Ras farnesyl transferase [4].

`CN1CCN(C(=O)c2cn(Cc3cncn3CC3CCN(C(=O)OCc4ccc5ccccc5c4)CC3)cc2-c2cccc3ccccc23)CC1` [Compound 45, 3-(4-Methylpiperazin-1-yl)carbonyl-4-(naphthalen-1-yl)-1-{1-[1-(naphthalen-2-ylmethyloxy)carbonylpiperidin-4-yl]methyl-1H-imidazol-5-yl}methyl-1H-pyrrole]: the IC50 stood at 10000 nM at Ras farnesyl transferase [1], 12 nM at Ras farnesyl transferase [2], 35 nM at Ras farnesyl transferase [3] and 1.8 nM at Ras farnesyl transferase [4].

`CC(C)CCOC(=O)N1CCC(Cn2cncc2Cn2cc(C(=O)N3CCN(C)CC3)c(-c3cccc4ccccc34)c2)CC1` [Compound 46]: the IC50 on Ras farnesyl transferase [1] is 10000 to 50000 nM; at Ras farnesyl transferase [2], 16 nM; at Ras farnesyl transferase [3] it was 25 nM; at Ras farnesyl transferase [4], 2.2 nM.

For the compound `CN1CCN(C(=O)c2cn(Cc3cncn3CC3CCN(C(=O)OCc4ccc(F)cc4)CC3)cc2-c2cccc3ccccc23)CC1` [Compound 47], the IC50 at Ras farnesyl transferase [1] is 4000 nM; at Ras farnesyl transferase [2], 6 nM; at Ras farnesyl transferase [3] it was 12.5 nM; on Ras farnesyl transferase [4] it was 3.3 nM.

As for `CN1CCN(C(=O)c2cn(Cc3cncn3CC3CCN(C(=O)OC/C=C/c4ccccc4)CC3)cc2-c2cccc3ccccc23)CC1` [Compound 48], the IC50 at Ras farnesyl transferase [1] was determined as 1000 nM; at Ras farnesyl transferase [2] it was 7 nM; at Ras farnesyl transferase [3], 12.5 nM; on Ras farnesyl transferase [4] it was 3.3 nM.

Regarding `CN1CCN(C(=O)c2cn(Cc3cncn3CC3CCN(C(=O)c4ccc5ccccc5c4)CC3)cc2-c2cccc3ccccc23)CC1` [Compound 49], the IC50 amounted to 10000 nM at Ras farnesyl transferase [1], 12 nM at Ras farnesyl transferase [2], 350 nM at Ras farnesyl transferase [3] and 1.8 nM at Ras farnesyl transferase [4].

With `CN1CCN(C(=O)c2cn(Cc3cncn3CC3CCN(C(=O)/C=C/c4ccccc4)CC3)cc2-c2cccc3ccccc23)CC1` [Compound 50], the IC50 is 10000 to 50000 nM at Ras farnesyl transferase [1], 8 nM on Ras farnesyl transferase [2], 30 nM at Ras farnesyl transferase [3] and 1.7 nM on Ras farnesyl transferase [4].

On to `CC(C)c1nc(C(=O)N2CCC(Cn3cncc3Cn3cc(C(=O)N4CCN(C)CC4)c(-c4cccc5ccccc45)c3)CC2)cs1` [Compound 51], for which the IC50 at Ras farnesyl transferase [1] was 10000 to 50000 nM; at Ras farnesyl transferase [2], 10 nM; at Ras farnesyl transferase [3] it was 5 nM; on Ras farnesyl transferase [4] it was 3 nM.

Regarding `CN1CCN(C(=O)c2cn(Cc3cncn3CC3CCN(C(=O)N(C)Cc4ccccc4)CC3)cc2-c2cccc3ccccc23)CC1` [Compound 52], the IC50 at Ras farnesyl transferase [1] is 10000 to 50000 nM; on Ras farnesyl transferase [2], 10 nM; at Ras farnesyl transferase [3] it was 50 nM; on Ras farnesyl transferase [4], 2.3 nM.

As to `CN1CCN(C(=O)c2cn(Cc3cncn3CC3CCN(C(=O)N(C)C)CC3)cc2-c2cccc3ccccc23)CC1` [Compound 53, 1-{1-[1-(N,N-Dimethylcarbamoyl)piperidin-4-yl]methyl-1H-imidazol-5-yl}methyl-3-(4-methylpiperazin-1-yl)carbonyl-4-(naphthalen-1-yl)-1H-pyrrole], the IC50 at Ras farnesyl transferase [1] was 10000 to 50000 nM; at Ras farnesyl transferase [2] it was 8.5 nM; at Ras farnesyl transferase [3], 50 nM; on Ras farnesyl transferase [4] it was 3 nM.

As to `CN1CCN(C(=O)c2cn(Cc3cncn3CC3CCN(C(=O)N4CCCc5ccccc54)CC3)cc2-c2cccc3ccccc23)CC1` [Compound 54, 3-(4-Methylpiperazin-1-yl)carbonyl-4-(naphthalen-1-yl)-1-{1-[1-(1,2,3,4-tetrahydroquinolin-1-ylcarbonyl)piperidin-4-yl]methyl-1H-imidazol-5-yl}methyl-1H-pyrrole], the IC50 at Ras farnesyl transferase [1] was 10000 to 50000 nM; on Ras farnesyl transferase [2], 40 nM; on Ras farnesyl transferase [3], 25 nM; on Ras farnesyl transferase [4], 11 nM.

For `CN1CCN(C(=O)c2cn(Cc3cncn3CC3CCN(C(=O)N4CCc5ccccc5C4)CC3)cc2-c2cccc3ccccc23)CC1` [Compound 55, 3-(4-Methylpiperazin-1-yl)carbonyl-4-(naphthalen-1-yl)-1-{1-[1-(1,2,3,4-tetrahydroisoquinolin-2-ylcarbonyl)piperidin-4-yl]methyl-1H-imidazol-5-yl}methyl-1H-pyrrole], the IC50 at Ras farnesyl transferase [1] was 10000 to 50000 nM; at Ras farnesyl transferase [2] it was 40 nM; on Ras farnesyl transferase [3], 25 nM; at Ras farnesyl transferase [4], 2 nM.

On to `CN1CCN(C(=O)c2cn(Cc3cncn3CC3CCN(Cc4ccc(-c5ccccc5)cc4)CC3)cc2-c2cccc3ccccc23)CC1` [Compound 56, 1-{1-[1-(4-Biphenylmethyl)piperidin-4-yl]methyl-1H-imidazol-5-yl}methyl-3-(4-methylpiperazin-1-yl)carbonyl-4-(naphthalen-1-yl)-1H-pyrrole], for which the IC50 on Ras farnesyl transferase [1] stood at 5000 nM; at Ras farnesyl transferase [2], 20 nM; at Ras farnesyl transferase [3], 50 nM; on Ras farnesyl transferase [4], 5 nM.

`CN1CCN(C(=O)c2cn(Cc3cncn3CC3CCN(Cc4ccc(Oc5ccccc5)cc4)CC3)cc2-c2cccc3ccccc23)CC1` [Compound 57, 3-(4-Methylpiperazin-1-yl)carbonyl-4-(naphthalen-1-yl)-1-{1-[1-(4-phenoxybenzyl)piperidin-4-yl]methyl-1H-imidazol-5-yl}methyl-1H-pyrrole]: the IC50 came to 10000 nM on Ras farnesyl transferase [1], 10 nM on Ras farnesyl transferase [2], 25 nM on Ras farnesyl transferase [3] and 11 nM at Ras farnesyl transferase [4].
